Assay results from patent US9850283B2, “Macrocyclic inhibitors of the PD-1/PD-L1 and CD80(B7-1)/PD-L1 protein/protein interactions” (BRISTOL-MYERS SQUIBB COMPANY, priority 2013, dated 2017).
Read-outs that look alike come from different tables or passages of the source. Positions of bridges follow the written chain, without caps; N, C: chain ends. Non-standard residues stand in square brackets, D forms with d. Residues, ends and D or L forms follow the SMILES beside them. ξ: configuration not given here. *: point of attachment. Phe(3-CF3) = N[C@@H](Cc1cccc(C(F)(F)F)c1)C(=O)O; Bta = N[C@@H](Cc1csc2ccccc12)C(=O)O; Cyclobutanecarbonyl = O=C(C1CCC1)*; Hyp = O=C(O)[C@@H]1C[C@@H](O)CN1; NMeF = CN[C@@H](Cc1ccccc1)C(=O)O; dNMeE = CN[C@H](CCC(=O)O)C(=O)O; NMeNle = CCCC[C@H](NC)C(=O)O; NMeM = CN[C@@H](CCSC)C(=O)O; dPip = O=C(O)[C@H]1CCCCN1; NMeA = CN[C@@H](C)C(=O)O; Orn = NCCC[C@H](N)C(=O)O; dNMeA = CN[C@H](C)C(=O)O; Dab = NCC[C@H](N)C(=O)O; Dap = NC[C@H](N)C(=O)O; ξC = NC(CS)C(=O)O; Sar = CNCC(=O)O

Experiments:
[1] = molecular target: T1, Human PD-L1/PD-1 (Homo sapiens, UniProt Q9NZQ7); test: HTRF PD-1-Ig/PD-L1-His binding assay (human PD-L1); conditions: cluster symbol; read-out: HTRF IC50 cluster
T1 construct: made in house; host or cells: HEK293T
Method in brief: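 Ig- and His-fused extracellular PD-1/PD-L1 binding in BSA/Tween-20 dPBS. HTRF with Eu anti-Ig (1 nM final) and APC anti-His (20 nM final).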

[2] = molecular target: T2, LK35.2-hPD-L1 cells / PE-labeled PD-1-Ig (Homo sapiens, UniProt Q9NZQ7); test: LK35.2-hPD-L1 cell binding high-content screening assay; type: cell-based; conditions: cluster symbol, read-out: CBA IC50 cluster
T2 construct: expressed in transfected cells; host or cells: LK35.2 mouse B cell line
Method in brief: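 Readout: high-content imaging of PE-PD-1-Ig bound to LK35.2-hPD-L1 cells. Cells plated overnight (RPMI/10% FCS); compound + 1 nM PE-PD-1-Ig, 1 h, 37 °C; 3× dPBS wash before imaging.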

[3] = cell line of CBA not given (LK35.2-hPD-L1 or 293T-hPD-L1)
[4] = cell binding assay, cell line not given

T2 sequence (Q9NZQ7 19-290): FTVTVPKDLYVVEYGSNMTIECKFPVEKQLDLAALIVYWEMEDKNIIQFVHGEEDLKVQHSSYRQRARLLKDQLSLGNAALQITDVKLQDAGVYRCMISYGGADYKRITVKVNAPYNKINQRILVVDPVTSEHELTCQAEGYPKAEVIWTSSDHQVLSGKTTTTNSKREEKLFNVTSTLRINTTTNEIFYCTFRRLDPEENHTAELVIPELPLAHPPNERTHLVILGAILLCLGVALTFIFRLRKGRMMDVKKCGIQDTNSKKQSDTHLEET
T1 sequence (Q9NZQ7 with tags, fused parts or gaps): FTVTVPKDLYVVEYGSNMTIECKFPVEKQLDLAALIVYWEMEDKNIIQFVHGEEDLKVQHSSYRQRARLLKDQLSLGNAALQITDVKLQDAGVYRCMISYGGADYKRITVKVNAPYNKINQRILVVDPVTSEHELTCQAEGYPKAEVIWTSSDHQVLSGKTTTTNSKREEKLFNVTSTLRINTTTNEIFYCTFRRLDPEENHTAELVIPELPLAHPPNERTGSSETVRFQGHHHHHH

IC50 [1] [nM]	IC50 [2, 3] [nM]	IC50 [2, 4] [nM]	Compound
6.76 to 30.3	0.158 to 4.71	–	CCCC[C@H]1C(=O)N(C)[C@@H](CCCC)C(=O)N[C@@H](CCCNC(=N)N)C(=O)N[C@H](C(=O)NCC(N)=O)CSCC(=O)N[C@@H](Cc2ccc(O)cc2)C(=O)N(C)[C@@H](C)C(=O)N[C@@H](CC(N)=O)C(=O)N2CCC[C@H]2C(=O)N[C@@H](Cc2cnc[nH]2)C(=O)N[C@@H](CC(C)C)C(=O)N2C[C@H](O)C[C@H]2C(=O)N[C@@H](Cc2c[nH]c3ccccc23)C(=O)N[C@@H](CCCN)C(=O)N[C@@H](Cc2c[nH]c3ccccc23)C(=O)N1C [Example 1133] ({CH2CO}-Y[NMeA]NPHL[Hyp]W[Orn]W[NMeNle][NMeNle]RCG-NH2; thioether N-14)
0.385 to 6.74	–	0.158 to 4.71	CCCC[C@H]1C(=O)N(C)[C@@H](CCSC)C(=O)N[C@@H](CCCNC(=N)N)C(=O)NC(C(=O)NCC(N)=O)CSCC(=O)N[C@@H](Cc2ccc(O)cc2)C(=O)N(C)[C@@H](C)C(=O)N[C@@H](CC(N)=O)C(=O)N2CCC[C@H]2C(=O)N[C@@H](Cc2cnc[nH]2)C(=O)N[C@@H](CO)C(=O)N2C[C@H](O)C[C@H]2C(=O)N[C@@H](Cc2c[nH]c3ccccc23)C(=O)N[C@@H](CO)C(=O)N[C@@H](Cc2csc3ccccc23)C(=O)N1C (stereo partly shown) [Example 9108] ({CH2CO}-Y[NMeA]NPHS[Hyp]WS[Bta][NMeNle][NMeM]R[ξC]G-NH2; thioether N-14)
0.385 to 6.74	–	4.78 to 72.9	CCCC[C@H]1C(=O)N(C)CC(=O)N[C@@H](CC(=O)O)C(=O)N[C@@H](C(C)C)C(=O)N(C)[C@@H](Cc2ccccc2)C(=O)N[C@@H](Cc2ccc(O)cc2)C(=O)N(C)[C@@H](CCC(=O)O)C(=O)N[C@@H](Cc2c[nH]c3ccccc23)C(=O)N[C@@H](Cc2ccc(O)cc2)C(=O)N[C@@H](CC(C)C)C(=O)N[C@H](C(=O)NCC(N)=O)CSCC(=O)N[C@@H](Cc2ccccc2)C(=O)N(C)[C@@H](Cc2ccccc2)C(=O)N1C [Example 3512] (HELM PEPTIDE1{[O=C(C[*:3])[*:2]].F.[meF].[CCCC[C@@H](C(=O)[*:2])N(C)[*:1]].[Sar].D.V.[meF].Y.[meE].W.Y.L.C.G.[am]}$PEPTIDE1,PEPTIDE1,1:R3-14:R3$$$V2.0)
> 30.5	> 74.3	–	CC(C)C[C@@H]1NC(=O)[C@H](Cc2c[nH]cn2)NC(=O)[C@@H]2CCCN2C(=O)[C@H](CC(N)=O)NC(=O)[C@H](C)N(C)C(=O)[C@H](Cc2ccccc2)NC(=O)CSC[C@@H](C(=O)NCC(N)=O)NC(=O)[C@H](CCCNC(=N)N)NC(=O)[C@H](C)N(C)C(=O)[C@H](CNC(=O)C2CCC2)NC(=O)[C@H](Cc2c[nH]c3ccccc23)NC(=O)[C@H](CO)NC(=O)[C@H](Cc2c[nH]c3ccccc23)NC(=O)CN(C)C1=O [Example 1033] ({CH2CO}-F[NMeA]NPHL[Sar]WSW[Dap](Cyclobutanecarbonyl)[NMeA]RCG-NH2; thioether N-14)
> 30.5	> 74.3	–	CCCC[C@H]1C(=O)N(C)CC(=O)N[C@@H](CC(=O)O)C(=O)N[C@@H](C(C)C)C(=O)N(C)[C@@H](Cc2cnc[nH]2)C(=O)N[C@@H](Cc2ccc(O)cc2)C(=O)N(C)CC(=O)N[C@@H](Cc2c[nH]c3ccccc23)C(=O)N[C@@H](Cc2ccc(O)cc2)C(=O)N[C@@H](CC(C)C)C(=O)N[C@H](C(=O)NCC(N)=O)CSCC(=O)N[C@@H](Cc2ccccc2)C(=O)N(C)[C@@H](Cc2cnc[nH]2)C(=O)N1C [Example 3058-A] (HELM PEPTIDE1{[O=C(C[*:3])[*:2]].F.[meH].[CCCC[C@@H](C(=O)[*:2])N(C)[*:1]].[Sar].D.V.[meH].Y.[Sar].W.Y.L.C.G.[am]}$PEPTIDE1,PEPTIDE1,1:R3-14:R3$$$V2.0)
0.385 to 6.74	–	0.158 to 4.71	CCCC[C@H]1C(=O)N(C)[C@H](CCC(=O)O)C(=O)N[C@@H](CC(N)=O)C(=O)N[C@@H](C(C)C)C(=O)N(C)[C@@H](Cc2ccccc2)C(=O)N[C@@H](Cc2ccc(O)cc2)C(=O)N2CCCC[C@@H]2C(=O)N[C@@H](Cc2c[nH]c3ccccc23)C(=O)N[C@@H](Cc2ccc(O)cc2)C(=O)N[C@@H](CCCCN)C(=O)N[C@H](C(=O)NCC(N)=O)CSCC(=O)N[C@@H](Cc2ccccc2)C(=O)N(C)[C@@H](Cc2ccccc2)C(=O)N1C [Example 3593] ({CH2CO}-F[NMeF][NMeNle][dNMeE]NV[NMeF]Y[dPip]WYKCG-NH2; thioether N-13)
> 30.5	–	> 74.3	CCCC[C@H]1C(=O)N(C)[C@@H](CCCC)C(=O)N[C@@H](CCN)C(=O)N[C@H](C(=O)NCC(N)=O)CSCC(=O)N[C@@H](Cc2ccc(O)cc2)C(=O)N(C)[C@@H](C)C(=O)N[C@@H](CC(N)=O)C(=O)N2CCC[C@H]2C(=O)N[C@@H](Cc2cnc[nH]2)C(=O)N[C@@H](CCC(=O)O)C(=O)N2C[C@H](O)C[C@H]2C(=O)N[C@@H](Cc2csc3ccccc23)C(=O)N[C@@H](CO)C(=O)N[C@@H](Cc2c[nH]c3ccccc23)C(=O)N1C [Example 5054] ({CH2CO}-Y[NMeA]NPHE[Hyp][Bta]SW[NMeNle][NMeNle][Dab]CG-NH2; thioether N-14)
6.76 to 30.3	4.78 to 72.9	–	CCCC[C@H]1C(=O)N(C)[C@@H](CCCC)C(=O)N[C@@H](CCCNC(=N)N)C(=O)N[C@H](C(=O)NCC(N)=O)CSCC(=O)N[C@@H](Cc2ccccc2)C(=O)N(C)[C@@H](C)C(=O)N[C@@H](CC(N)=O)C(=O)N2CCC[C@H]2C(=O)N[C@@H](Cc2cnc[nH]2)C(=O)N[C@@H](CC(C)C)C(=O)N(C)CC(=O)N[C@@H](Cc2c[nH]c3ccccc23)C(=O)N[C@@H](CCCN)C(=O)N[C@@H](Cc2c[nH]c3ccccc23)C(=O)N1C [Example 1070] ({CH2CO}-F[NMeA]NPHL[Sar]W[Orn]W[NMeNle][NMeNle]RCG-NH2; thioether N-14)
> 30.5	> 74.3	–	CCCC[C@H]1C(=O)N(C)CC(=O)N[C@@H](CC(=O)O)C(=O)N[C@@H](CC2CCCCC2)C(=O)N(C)[C@@H](Cc2ccccc2)C(=O)N[C@@H](Cc2ccc(O)cc2)C(=O)N(C)CC(=O)N[C@@H](Cc2c[nH]c3ccccc23)C(=O)N[C@@H](Cc2ccc(O)cc2)C(=O)N[C@@H](CC(C)C)C(=O)N[C@H](C(=O)NCC(N)=O)CSCC(=O)N[C@@H](Cc2ccccc2)C(=O)N(C)[C@@H](Cc2ccccc2)C(=O)N1C [Example 3159] (HELM PEPTIDE1{[O=C(C[*:3])[*:2]].F.[meF].[CCCC[C@@H](C(=O)[*:2])N(C)[*:1]].[Sar].D.[Cha].[meF].Y.[Sar].W.Y.L.C.G.[am]}$PEPTIDE1,PEPTIDE1,1:R3-14:R3$$$V2.0)
> 30.5	–	> 74.3	CCCC[C@H]1C(=O)N(C)CC(=O)N[C@@H](CC(=O)O)C(=O)N[C@@H](Cc2ccccc2)C(=O)N(C)[C@@H](Cc2ccccc2)C(=O)N[C@@H](Cc2ccc(O)cc2)C(=O)N(C)CC(=O)N[C@@H](Cc2c[nH]c3ccccc23)C(=O)N[C@@H](Cc2ccc(O)cc2)C(=O)N[C@@H](CC(C)C)C(=O)N[C@H](C(=O)NCC(N)=O)CSCC(=O)N[C@@H](Cc2ccccc2)C(=O)N(C)[C@@H](Cc2ccccc2)C(=O)N1C [Example 3543] (HELM PEPTIDE1{[O=C(C[*:3])[*:2]].F.[meF].[CCCC[C@@H](C(=O)[*:2])N(C)[*:1]].[Sar].D.F.[meF].Y.[Sar].W.Y.L.C.G.[am]}$PEPTIDE1,PEPTIDE1,1:R3-14:R3$$$V2.0)
0.385 to 6.74	–	0.158 to 4.71	CCCC[C@H]1C(=O)N(C)[C@@H](CCSC)C(=O)N[C@@H](CCCNC(=N)N)C(=O)NC(C(=O)NCC(N)=O)CSCC(=O)N[C@@H](Cc2ccc(O)cc2)C(=O)N(C)[C@@H](C)C(=O)N[C@@H](CC(N)=O)C(=O)N2CCC[C@H]2C(=O)N[C@@H](Cc2cnc[nH]2)C(=O)N[C@@H](CC(C)C)C(=O)N2CCC[C@H]2C(=O)N[C@@H](Cc2c[nH]c3ccccc23)C(=O)N[C@@H](CO)C(=O)N[C@@H](Cc2c[nH]c3ccccc23)C(=O)N1C (stereo partly shown) [Example 9030] ({CH2CO}-Y[NMeA]NPHLPWSW[NMeNle][NMeM]R[ξC]G-NH2; thioether N-14)
0.385 to 6.74	0.158 to 4.71	–	CCCC[C@H]1C(=O)N(C)[C@@H](CCCC)C(=O)N[C@@H](CCCNC(=N)N)C(=O)N[C@H](C(=O)NCC(N)=O)CSCC(=O)N[C@@H](Cc2ccc(O)cc2)C(=O)N(C)[C@@H](C)C(=O)N[C@@H](CC(=O)O)C(=O)N2CCC[C@H]2C(=O)N[C@@H](Cc2cnc[nH]2)C(=O)N[C@@H](CC(C)C)C(=O)N2C[C@H](O)C[C@H]2C(=O)N[C@@H](Cc2c[nH]c3ccccc23)C(=O)N[C@@H](CO)C(=O)N[C@@H](Cc2c[nH]c3ccccc23)C(=O)N1C [Example 1166] ({CH2CO}-Y[NMeA]DPHL[Hyp]WSW[NMeNle][NMeNle]RCG-NH2; thioether N-14)
6.76 to 30.3	–	4.78 to 72.9	CCCC[C@H]1C(=O)N(C)CC(=O)N[C@@H](CC(=O)O)C(=O)N[C@@H](C(C)C)C(=O)N(C)[C@@H](Cc2ccccc2)C(=O)N[C@@H](Cc2ccc(O)cc2)C(=O)N(C)[C@H](C)C(=O)N[C@@H](Cc2c[nH]c3ccccc23)C(=O)N[C@@H](Cc2ccc(O)cc2)C(=O)N[C@@H](CC(C)C)C(=O)N[C@H](C(=O)NCC(N)=O)CSCC(=O)N[C@@H](Cc2ccccc2)C(=O)N(C)[C@@H](Cc2ccccc2)C(=O)N1C [Example 3551] ({CH2CO}-F[NMeF][NMeNle][Sar]DV[NMeF]Y[dNMeA]WYLCG-NH2; thioether N-13)
> 30.5	4.78 to 72.9	–	CCCC[C@H]1C(=O)N(C)CC(=O)N[C@@H](CC(=O)O)C(=O)N[C@@H](C(C)C)C(=O)N(C)[C@@H](Cc2ccccc2)C(=O)N[C@@H](Cc2ccc(O)cc2)C(=O)N(C)CC(=O)N[C@@H](Cc2c[nH]c3ccccc23)C(=O)N[C@@H](Cc2ccc(O)cc2)C(=O)N[C@@H](CC(C)C)C(=O)N[C@H](C(=O)NCC(N)=O)CSCC(=O)N[C@@H](Cc2cccc(C(F)(F)F)c2)C(=O)N(C)[C@@H](Cc2ccccc2)C(=O)N1C [Example 3106] ({CH2CO}-[Phe(3-CF3)][NMeF][NMeNle][Sar]DV[NMeF]Y[Sar]WYLCG-NH2; thioether N-13)
